{"source": "PubChem BioAssay AID1963840", "about": "(Molecular Pharmacology Branch, DTP, NCI, 2024)", "system": "695427-040-R-J1-PDC complex spheroid viability", "assay": "Anticancer human tumor 695427-040-R-J1-PDC patient-derived colon adenocarcinoma cell line growth inhibition [POLQ]", "details": "for pIC50: curve of first compound; for viability, T/C: stronger effect = lower value", "how_it_was_run": "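Growth inhibition in 3D: complex spheroids (tumor PDC, HUVEC, MSC) treated with POLQ inhibitor combinations; where Cmax unknown, highest tested concentration 10 microM, except SN-38 at 1 microM.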", "key": {"[1]": {"details": "second compound 0.0316 µM, first compound 0.0316 µM"}, "[2]": {"details": "second compound 0.0316 µM, first compound 0.1 µM"}, "[3]": {"details": "second compound 0.0316 µM, first compound 0.316 µM"}, "[4]": {"details": "second compound 0.0316 µM, first compound 1 µM"}, "[5]": {"details": "second compound 0.0316 µM, first compound 3.16 µM"}, "[6]": {"details": "second compound 0.0316 µM, first compound 10 µM"}, "[7]": {"details": "second compound 0.1 µM, first compound 0.0316 µM"}, "[8]": {"details": "second compound 0.1 µM, first compound 0.1 µM"}, "[9]": {"details": "second compound 0.1 µM, first compound 0.316 µM"}, "[10]": {"details": "second compound 0.1 µM, first compound 1 µM"}, "[11]": {"details": "second compound 0.1 µM, first compound 3.16 µM"}, "[12]": {"details": "second compound 0.1 µM, first compound 10 µM"}, "[13]": {"details": "second compound 0.316 µM, first compound 0.0316 µM"}, "[14]": {"details": "second compound 0.316 µM, first compound 0.1 µM"}, "[15]": {"details": "second compound 0.316 µM, first compound 0.316 µM"}, "[16]": {"details": "second compound 0.316 µM, first compound 1 µM"}, "[17]": {"details": "second compound 0.316 µM, first compound 3.16 µM"}, "[18]": {"details": "second compound 0.316 µM, first compound 10 µM"}, "[19]": {"details": "second compound 1 µM, first compound 0.0316 µM"}, "[20]": {"details": "second compound 1 µM, first compound 0.1 µM"}, "[21]": {"details": "second compound 1 µM, first compound 0.316 µM"}, "[22]": {"details": "second compound 1 µM, first compound 1 µM"}, "[23]": {"details": "second compound 1 µM, first compound 3.16 µM"}, "[24]": {"details": "second compound 1 µM, first compound 10 µM"}, "[25]": {"details": "second compound 3.16 µM, first compound 0.0316 µM"}, "[26]": {"details": "second compound 3.16 µM, first compound 0.1 µM"}, "[27]": {"details": "second compound 3.16 µM, first compound 0.316 µM"}, "[28]": {"details": "second compound 3.16 µM, first compound 1 µM"}, "[29]": {"details": "second compound 3.16 µM, first compound 3.16 µM"}, "[30]": {"details": "second compound 3.16 µM, first compound 10 µM"}, "[31]": {"details": "second compound 10 µM, first compound 0.0316 µM"}, "[32]": {"details": "second compound 10 µM, first compound 0.1 µM"}, "[33]": {"details": "second compound 10 µM, first compound 0.316 µM"}, "[34]": {"details": "second compound 10 µM, first compound 1 µM"}, "[35]": {"details": "second compound 10 µM, first compound 3.16 µM"}, "[36]": {"details": "second compound 10 µM, first compound 10 µM"}}, "note": "pIC50: −log10 of the molar value.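 Note: spheroids exposed to compounds for seven days.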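 Throughout, for viability, T/C: 100% = DMSO vehicle control viability.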"}
{"smiles": "COc1cc2cc(C(=O)CCC(=O)O)sc2cc1OC", "note": "+ Cc1cccc(N(C)C(=O)C2C(O)CCN2c2nc(C)cc(C(F)(F)F)c2C#N)c1", "values": [{"measurement": "pIC50", "setting": "second compound 0.0316 µM", "value": "< 5.00"}, {"measurement": "pIC50", "setting": "second compound 0.1 µM", "value": "< 5.00"}, {"measurement": "pIC50", "setting": "second compound 0.316 µM", "value": "< 5.00"}, {"measurement": "pIC50", "setting": "second compound 1 µM", "value": "< 5.00"}, {"measurement": "pIC50", "setting": "second compound 3.16 µM", "value": "< 5.00"}, {"measurement": "pIC50", "setting": "second compound 10 µM", "value": "< 5.00"}, {"measurement": "viability, T/C", "setting": "[1]", "value": 100, "unit": "%"}, {"measurement": "viability, T/C", "setting": "[2]", "value": 106, "unit": "%"}, {"measurement": "viability, T/C", "setting": "[3]", "value": 96.5, "unit": "%"}, {"measurement": "viability, T/C", "setting": "[4]", "value": 99.5, "unit": "%"}, {"measurement": "viability, T/C", "setting": "[5]", "value": 105, "unit": "%"}, {"measurement": "viability, T/C", "setting": "[6]", "value": 92, "unit": "%"}, {"measurement": "viability, T/C", "setting": "[7]", "value": 111, "unit": "%"}, {"measurement": "viability, T/C", "setting": "[8]", "value": 97.1, "unit": "%"}, {"measurement": "viability, T/C", "setting": "[9]", "value": 98.2, "unit": "%"}, {"measurement": "viability, T/C", "setting": "[10]", "value": 95.3, "unit": "%"}, {"measurement": "viability, T/C", "setting": "[11]", "value": 111, "unit": "%"}, {"measurement": "viability, T/C", "setting": "[12]", "value": 88.3, "unit": "%"}, {"measurement": "viability, T/C", "setting": "[13]", "value": 112, "unit": "%"}, {"measurement": "viability, T/C", "setting": "[14]", "value": 106, "unit": "%"}, {"measurement": "viability, T/C", "setting": "[15]", "value": 106, "unit": "%"}, {"measurement": "viability, T/C", "setting": "[16]", "value": 108, "unit": "%"}, {"measurement": "viability, T/C", "setting": "[17]", "value": 114, "unit": "%"}, {"measurement": "viability, T/C", "setting": "[18]", "value": 100, "unit": "%"}, {"measurement": "viability, T/C", "setting": "[19]", "value": 108, "unit": "%"}, {"measurement": "viability, T/C", "setting": "[20]", "value": 101, "unit": "%"}, {"measurement": "viability, T/C", "setting": "[21]", "value": 108, "unit": "%"}, {"measurement": "viability, T/C", "setting": "[22]", "value": 98.9, "unit": "%"}, {"measurement": "viability, T/C", "setting": "[23]", "value": 103, "unit": "%"}, {"measurement": "viability, T/C", "setting": "[24]", "value": 88.8, "unit": "%"}, {"measurement": "viability, T/C", "setting": "[25]", "value": 96.7, "unit": "%"}, {"measurement": "viability, T/C", "setting": "[26]", "value": 98.3, "unit": "%"}, {"measurement": "viability, T/C", "setting": "[27]", "value": 102, "unit": "%"}, {"measurement": "viability, T/C", "setting": "[28]", "value": 101, "unit": "%"}, {"measurement": "viability, T/C", "setting": "[29]", "value": 97.9, "unit": "%"}, {"measurement": "viability, T/C", "setting": "[30]", "value": 95.4, "unit": "%"}, {"measurement": "viability, T/C", "setting": "[31]", "value": 94.3, "unit": "%"}, {"measurement": "viability, T/C", "setting": "[32]", "value": 82.2, "unit": "%"}, {"measurement": "viability, T/C", "setting": "[33]", "value": 101, "unit": "%"}, {"measurement": "viability, T/C", "setting": "[34]", "value": 89.5, "unit": "%"}, {"measurement": "viability, T/C", "setting": "[35]", "value": 99.4, "unit": "%"}, {"measurement": "viability, T/C", "setting": "[36]", "value": 90.9, "unit": "%"}]}
{"smiles": "O=C(Nc1ccc(O)c(NS(=O)(=O)c2ccc(F)cc2)c1)c1ccc(-c2ccccc2)cc1", "note": "+ Cc1cccc(N(C)C(=O)C2C(O)CCN2c2nc(C)cc(C(F)(F)F)c2C#N)c1", "values": [{"measurement": "pIC50", "setting": "second compound 0.0316 µM", "value": "< 5.00"}, {"measurement": "pIC50", "setting": "second compound 0.1 µM", "value": "< 5.00"}, {"measurement": "pIC50", "setting": "second compound 0.316 µM", "value": "< 5.00"}, {"measurement": "pIC50", "setting": "second compound 1 µM", "value": "< 5.00"}, {"measurement": "pIC50", "setting": "second compound 3.16 µM", "value": "< 5.00"}, {"measurement": "pIC50", "setting": "second compound 10 µM", "value": "< 5.00"}, {"measurement": "viability, T/C", "setting": "[1]", "value": 111, "unit": "%"}, {"measurement": "viability, T/C", "setting": "[2]", "value": 107, "unit": "%"}, {"measurement": "viability, T/C", "setting": "[3]", "value": 92.2, "unit": "%"}, {"measurement": "viability, T/C", "setting": "[4]", "value": 103, "unit": "%"}, {"measurement": "viability, T/C", "setting": "[5]", "value": 108, "unit": "%"}, {"measurement": "viability, T/C", "setting": "[6]", "value": 98.4, "unit": "%"}, {"measurement": "viability, T/C", "setting": "[7]", "value": 105, "unit": "%"}, {"measurement": "viability, T/C", "setting": "[8]", "value": 101, "unit": "%"}, {"measurement": "viability, T/C", "setting": "[9]", "value": 95.9, "unit": "%"}, {"measurement": "viability, T/C", "setting": "[10]", "value": 99.5, "unit": "%"}, {"measurement": "viability, T/C", "setting": "[11]", "value": 112, "unit": "%"}, {"measurement": "viability, T/C", "setting": "[12]", "value": 88.2, "unit": "%"}, {"measurement": "viability, T/C", "setting": "[13]", "value": 104, "unit": "%"}, {"measurement": "viability, T/C", "setting": "[14]", "value": 103, "unit": "%"}, {"measurement": "viability, T/C", "setting": "[15]", "value": 97.4, "unit": "%"}, {"measurement": "viability, T/C", "setting": "[16]", "value": 101, "unit": "%"}, {"measurement": "viability, T/C", "setting": "[17]", "value": 111, "unit": "%"}, {"measurement": "viability, T/C", "setting": "[18]", "value": 86.9, "unit": "%"}, {"measurement": "viability, T/C", "setting": "[19]", "value": 109, "unit": "%"}, {"measurement": "viability, T/C", "setting": "[20]", "value": 95.9, "unit": "%"}, {"measurement": "viability, T/C", "setting": "[21]", "value": 101, "unit": "%"}, {"measurement": "viability, T/C", "setting": "[22]", "value": 94.4, "unit": "%"}, {"measurement": "viability, T/C", "setting": "[23]", "value": 115, "unit": "%"}, {"measurement": "viability, T/C", "setting": "[24]", "value": 92.3, "unit": "%"}, {"measurement": "viability, T/C", "setting": "[25]", "value": 97.6, "unit": "%"}, {"measurement": "viability, T/C", "setting": "[26]", "value": 101, "unit": "%"}, {"measurement": "viability, T/C", "setting": "[27]", "value": 93.5, "unit": "%"}, {"measurement": "viability, T/C", "setting": "[28]", "value": 103, "unit": "%"}, {"measurement": "viability, T/C", "setting": "[29]", "value": 103, "unit": "%"}, {"measurement": "viability, T/C", "setting": "[30]", "value": 93.6, "unit": "%"}, {"measurement": "viability, T/C", "setting": "[31]", "value": 103, "unit": "%"}, {"measurement": "viability, T/C", "setting": "[32]", "value": 92.2, "unit": "%"}, {"measurement": "viability, T/C", "setting": "[33]", "value": 96.1, "unit": "%"}, {"measurement": "viability, T/C", "setting": "[34]", "value": 94, "unit": "%"}, {"measurement": "viability, T/C", "setting": "[35]", "value": 102, "unit": "%"}, {"measurement": "viability, T/C", "setting": "[36]", "value": 82.6, "unit": "%"}]}
